US10829500B2, “Pyridyl-triazabicycles” (Hoffmann-La Roche Inc., priority 2014, dated 2020)

Each compound was assayed against BACE1 (Homo sapiens (Human), UniProt P56817) (assay: Cellular Aβ-lowering assay (Abeta 40 AlphaLISA) in HEK293 APP cells). Conditions: Aβ 40 in culture supernatant after 18-20 hrs incubation.
Type: cell-based
Description: Cellular Aβ-Lowering Assay:
The Abeta 40 AlphaLISA Assay can be used. The HEK293 APP cells were seeded in 96 well Microtiter plates in cell culture medium (Iscove's, plus 10% (v/v) fetal bovine serum, penicillin/streptomycin) to about 80% confluency and the compounds were added at a 3× concentration in ⅓ volume of culture medium (final DMSO concentration was kept at 1% v/v). After 18-20 hrs incubation at 37° C. and 5% CO2 in a humidified incubator, the culture supernatants were harvested for the determination of Aβ 40 concentrations using Perkin-Elmer Human Amyloid beta 1-40 (high specificity) Kit (Cat # AL275C).
In a Perkin-Elmer White Optiplate-384 (Cat #6007290), 2 ul culture supernatants were combined with 2 μl of a 10× AlphaLISA Anti-hAβAcceptor beads+Biotinylated Antibody Anti-Aβ 1-40 Mix (50 μg/mL/5 nM). After 1 hour room temperature incubation, 16 μl of a 1.25× preparation of Streptavidin (SA) Donor beads (25 μg/mL) were added and incubated for 30 minutes in the Dark. Light Emission at 615 nm was then recorded using EnVision-Alpha Reader. Levels of A β 40 in the culture supernatants were calculated as percentage of maximum signal (cells treated with 1% DMSO without inhibitor). The IC50 values were calculated using the Excel XLfit software.

BACE1, sequence (P56817 46-501): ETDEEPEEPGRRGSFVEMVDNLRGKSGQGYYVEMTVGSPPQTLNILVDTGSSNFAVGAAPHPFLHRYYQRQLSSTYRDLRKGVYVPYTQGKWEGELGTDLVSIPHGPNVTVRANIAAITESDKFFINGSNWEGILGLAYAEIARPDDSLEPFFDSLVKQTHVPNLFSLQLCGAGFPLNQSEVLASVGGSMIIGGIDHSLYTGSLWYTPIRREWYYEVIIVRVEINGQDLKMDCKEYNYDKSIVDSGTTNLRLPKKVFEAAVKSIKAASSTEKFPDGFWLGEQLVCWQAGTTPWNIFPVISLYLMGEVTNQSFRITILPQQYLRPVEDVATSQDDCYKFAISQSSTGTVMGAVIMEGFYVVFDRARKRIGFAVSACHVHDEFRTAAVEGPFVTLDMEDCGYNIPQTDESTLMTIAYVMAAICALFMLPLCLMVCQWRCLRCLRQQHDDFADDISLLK

Row | Structure (SMILES) | IC50 [nM]
1 | N#Cc1ccc(C(=O)Nc2ccc(F)c([C@]3(CF)C[S@@]4(=O)=NCCCCN4C(N)=N3)n2)nc1 [Example 5, N-[6[(1R,10S)-8-Amino-10-(fluoromethyl)-1-oxo-1λ^6-thia-2,7,9-triazabicyclo[5.4.0]undeca-1,8-dien-10-yl]-5-fluoropyridin-2-yl]-5-cyanopyridine-2-carboxamide] | 28
2 | C[C@@]1(c2nc(NC(=O)c3ccc(C#N)cn3)ccc2F)CS2(=O)=NCCCCN2C(N)=N1 (stereo in doubt) [Example 2, 5-Cyano-pyridine-2-carboxylic acid [6-((3R,4aS)-1-amino-3-methyl-4a-oxo-3,4,6,7,8,9-hexahydro-4aλ^6-thia-2,5,9a-triaza-benzocyclohepten-3-yl)-5-fluoro-pyridin-2-yl]-amide] | 49
3 | C[C@@]1(c2nc(NC(=O)c3ccc(C#N)cn3)ccc2F)CS2(=O)=NCCCCN2C(N)=N1 (stereo in doubt) [Example 1, 5-Cyano-pyridine-2-carboxylic acid [6-((3R,4aR)-1-amino-3-methyl-4a-oxo-3,4,6,7,8,9-hexahydro-4aλ^6-thia-2,5,9a-triaza-benzocyclohepten-3-yl)-5-fluoro-pyridin-2-yl]-amide] | 86
4 | Cc1cc(C#N)cnc1C(=O)Nc1ccc(F)c([C@]2(C)C[S@@]3(=O)=NCCCCN3C(N)=N2)n1 [Example 3] | 36
5 | N#Cc1ccc(C(=O)Nc2ccc(F)c([C@]3(CF)C[S@]4(=O)=NCCCCN4C(N)=N3)n2)nc1 [Example 4, N-[6-[(1S,10S)-8-Amino-10-(fluoromethyl)-1-oxo-1λ^6-thia-2,7,9-triazabicyclo[5.4.0]undeca-1,8-dien-10-yl]-5-fluoropyridin-2-yl]-5-cyanopyridine-2-carboxamide] | 96
